SMILES strings stand for the structures.

For one assay, the target named is T1, GLUT1 (Homo sapiens, UniProt P11166).
T1 construct: The full-length human SLC2A1, SLC2A3, and SLC2A4 genes were PCR amplified and inserted into pLenti6M vector 2; expressed in transfected cells
T1 sequence (P11166 1-492): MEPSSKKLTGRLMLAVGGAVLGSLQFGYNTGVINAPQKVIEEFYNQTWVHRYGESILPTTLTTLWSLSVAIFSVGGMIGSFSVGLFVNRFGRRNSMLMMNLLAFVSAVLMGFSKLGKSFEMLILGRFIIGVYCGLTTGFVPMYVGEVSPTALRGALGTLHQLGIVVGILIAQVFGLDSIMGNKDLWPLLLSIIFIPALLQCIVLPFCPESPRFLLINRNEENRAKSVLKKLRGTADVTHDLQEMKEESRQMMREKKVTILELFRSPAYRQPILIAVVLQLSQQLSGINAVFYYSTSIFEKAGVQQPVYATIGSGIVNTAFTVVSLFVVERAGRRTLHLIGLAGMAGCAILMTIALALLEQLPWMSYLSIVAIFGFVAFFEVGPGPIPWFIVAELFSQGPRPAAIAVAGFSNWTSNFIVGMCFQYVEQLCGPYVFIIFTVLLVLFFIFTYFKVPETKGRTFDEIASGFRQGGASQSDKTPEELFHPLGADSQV
Briefly: rapafucin 3D microarray screen with GLUT1-containing cell lysate. It counts as binding. The settings on record: signal-to-background ratio, 3D surface, lysate of GLUT1-overexpressing HEK293T; hit if SBR > 3. An excerpt:
Once stock solutions of the rapafucin library were arrayed on the 2D or 3D surface and most of solvent carrier was evaporated, the crosslinking reaction was initiated by irradiating the surfaces with 365-nm wavelength UV light. Kawatani and Osada, Medchemcomm 2014, 5, 277-287. […] To screen for GLUT1-interacting rapafucins, GLUT1 was stably overexpressed in HEK293T cells and generated cell lysates containing detergent-solubilized recombinant GLUT1 (FIG. 10). The GLUT1-containing cell lysate was then incubated on both 2D and 3D rapafucin microarrays. After washing the slides to remove unbound proteins, the bound GLUT1 protein was detected with anti-GLUT1 antibodies, followed by visualization with Cy5-labeled secondary antibodies using a microarray scanner. Rapafucins were scored as positive hits when the corresponding SBR was greater than 3. Based on this criterion, a total of 17 rapafucin hits and one positive control BAY-876, a specific GLUT1 inhibitor, Siebeneicher et al., ChemMedChem 2016, 11, 2261-2271, were identified on the 3D rapafucin microarray. In contrast, only one hit (WL13-F11, also among the 17 hits identified from the 3D rapafucin microarray) was identified on the 2D rapafucin microarray (Table 1, FIG. 11).
The amine substrates (Arrayit, SMM) were immerged in a mixture of 2-bromoisobutyryl bromide (BIBB, 0.1 mM, as initiator) and propionyl bromide (10 mM, as horizontal spacer) with triethylamine (15 mM) in DCM for 4 hours. A degassed polymerization reaction mixture, containing copper (II) chloride dihydrate (CuCl2, 4 mmol), 2,2′-bipyridine (2 mmol), 75 mmol monomers mixture of 2-(dimethylamino)ethyl methacrylate (DMAEMA) and poly(ethylene glycol) methacrylate (PEGMA Mn 360) in 500 mL Milli-Q/MeOH, was mixed with freshly made ascorbic acid (4 mmol). The mixture was applied to 50 slides for 6 hours under the argon atmosphere for the surface-initiated polymerization. A gradient ratio of PEGMA and DMAEMA was set, including 10:0, 8:2, 5:5, 2:8 and 0:10 for an optimization purpose. The terminals of the brushes were further functionalized by N,N′-disuccinimidyl carbonate (DSC, 10 mM) and 4-dimethylaminopyridine (DMAP,10 mM) in DMF overnight to form succinimidyl carbonate intermediate, and, successively, diazirine linker 1 (10 mM) and N,Ndiisopropylethylamine (DIPEA, 50 mM) in DMF for 2 hours to couple the photoaffinity linker in dark at room temperature. At the end, the substrates were immerged in a 50 mM ethanolamine in DMF to block the residual carboxylic moiety. The slides were thoroughly washed by DMF, EtOH and DCM and dried in a fuming cupboard and ready for spotting.
10 mM of rapafucins in DMSO from the library were spotted onto the slides with a high-precision microarrayer (Nanoprint, Arrayit, CA) for a desired pattern in dark, which was loaded with 16 100-μm diameter micro-spotting pins. The pin heads were thoroughly washed and sonicated in ethanol and dried for 4 times under a compassed air between each sample loading. After overnight evaporation, the slides were exposed to 365-nm wavelength UV irradiation for 4 J/cm^2 by CL-1000L UV crosslinker (UVP, CA) for rapafucins covalent immobilization. The slides were ultrasonic cleaned successively in DCM, MeOH and Milli-Q water and stored in a −20° C. freezer.
In the optimization experiments, the slides were incubated with 50 nM purified recombinant FKBP12 for 1 hour, while in the GLUT1 screening, 10 mg/mL of cell lysate containing DDM-solubilized GLUT1 from GLUT1 overexpressed HEK293T was incubated for 1 hour. Successively, primary antibody and CY5 labeled secondary antibody were added for 1 hour. The chips were washed in buffer A for 5 mins 3 times after the sample and antibodies incubation. After centrifugation, the dried chips were scanned by a microarray scanner (Genepix, US) at 635-nm wavelength. The final result was analyzed by GenePix software.

In the next assay the test system is A549. Briefly: Alamar blue cell proliferation assay, A549. It counts as cell-based, human. Particulars: A549, 72 h; read-out: IC50 Assay B (Alamar blue cell proliferation). The protocol:
The effects of RgA on cell growth, survival, and cell death was then determined. […] Treatment with 5 μM of RgA caused an increase in G1 phase by approximately 23% in comparison to control and approximately 7% and 17% decreases in cells in S and G2/M phases, respectively. The induction in G1 phase cell cycle arrest by RgA is dose-dependent (FIG. 5A, FIG. 16). […] Jones and Thompson, Genes Dev. 2009, 23, 537-548. […] The IC50 values of RgA against several human cancer cell lines also was determined using the alamar blue cell proliferation assay.
Cells were seeded into a 96-well plate (Costar) in 180 μL culture media. After an overnight recovery, drugs were added and incubated for 72 h. After drug incubation, cells were added with 20 μL of alamar blue reagent and the plates were incubated at 37° C. for 6 h before reading the fluorescence (544 nm Ex/590 nm Em) with a plate reader. GraphPad Prism (v4.03) software was used to determine IC50 values using a four parameter logistic regression.

On to `CCC(C)C1C(=O)NCC(=O)N(C)CCC=CC(=O)OCC(C)(C)C(=O)C(=O)N2CCCCC2C(=O)OC(CCc2ccc(OC)c(OC)c2)c2cccc(c2)NC(=O)CCC(=O)N(C)C(CC(C)C)C(=O)NC(Cc2ccccc2)C(=O)N1C` (centres unmarked) [JW11-D2, Rapaglutin A], for which, on GLUT1, the “3D SBR” value came out at 6.5 ± 1.4. Besides, the IC50 with A549 stood at 0.189 µM.

(Values after patent US12649980B2, “Three-dimensional surface for protein and small molecule microarrays” (The Johns Hopkins University, priority 2019, dated 2026).)
